Measurements as given in ChEMBL document CHEMBL1201862, “PubChem BioAssay data set” (2004).
“Also recorded” adds a separate entry of the source. One block for each molecule: values may come before it. The source made the active and inactive calls.

Columns and labels:
[1] = target: Cytochrome P450 2C19 (Homo sapiens, UniProt P33261); test: Cytochrome panel assay with activity outcomes. Panel member name: p450-cyp2c19 Compounds with AC50 equal or less than 10 uM are considered active; type: functional
[2] = target: T1, Cytochrome P450 1A2 (Homo sapiens, UniProt P05177)
T1 sequence (P05177 whole entry): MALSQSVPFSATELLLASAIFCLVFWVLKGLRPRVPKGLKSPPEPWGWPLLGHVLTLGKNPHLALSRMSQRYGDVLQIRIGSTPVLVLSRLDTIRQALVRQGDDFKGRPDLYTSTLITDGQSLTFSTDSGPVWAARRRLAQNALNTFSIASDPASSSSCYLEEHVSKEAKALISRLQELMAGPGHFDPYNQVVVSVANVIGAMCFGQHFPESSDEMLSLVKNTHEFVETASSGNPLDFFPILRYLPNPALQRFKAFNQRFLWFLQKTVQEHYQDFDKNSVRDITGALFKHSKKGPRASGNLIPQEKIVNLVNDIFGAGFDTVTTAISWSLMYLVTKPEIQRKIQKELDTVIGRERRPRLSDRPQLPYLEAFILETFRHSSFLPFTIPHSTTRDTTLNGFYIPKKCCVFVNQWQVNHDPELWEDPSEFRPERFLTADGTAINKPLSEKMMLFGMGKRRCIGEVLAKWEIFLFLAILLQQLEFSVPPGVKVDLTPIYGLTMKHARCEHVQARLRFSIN

[3] = target: T2, Short transient receptor potential channel 4 (Mus musculus, UniProt Q9QUQ5); test: mouse TRPC4 channel inhibitors, dose response, cell-based, HEK293 TRPC4/mu-opioid, Fluo-4 calcium (AID 434942); type: functional;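 also: potency of inhibitors blocking the TRPC4 calcium response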
T2 sequence (Q9QUQ5 whole entry): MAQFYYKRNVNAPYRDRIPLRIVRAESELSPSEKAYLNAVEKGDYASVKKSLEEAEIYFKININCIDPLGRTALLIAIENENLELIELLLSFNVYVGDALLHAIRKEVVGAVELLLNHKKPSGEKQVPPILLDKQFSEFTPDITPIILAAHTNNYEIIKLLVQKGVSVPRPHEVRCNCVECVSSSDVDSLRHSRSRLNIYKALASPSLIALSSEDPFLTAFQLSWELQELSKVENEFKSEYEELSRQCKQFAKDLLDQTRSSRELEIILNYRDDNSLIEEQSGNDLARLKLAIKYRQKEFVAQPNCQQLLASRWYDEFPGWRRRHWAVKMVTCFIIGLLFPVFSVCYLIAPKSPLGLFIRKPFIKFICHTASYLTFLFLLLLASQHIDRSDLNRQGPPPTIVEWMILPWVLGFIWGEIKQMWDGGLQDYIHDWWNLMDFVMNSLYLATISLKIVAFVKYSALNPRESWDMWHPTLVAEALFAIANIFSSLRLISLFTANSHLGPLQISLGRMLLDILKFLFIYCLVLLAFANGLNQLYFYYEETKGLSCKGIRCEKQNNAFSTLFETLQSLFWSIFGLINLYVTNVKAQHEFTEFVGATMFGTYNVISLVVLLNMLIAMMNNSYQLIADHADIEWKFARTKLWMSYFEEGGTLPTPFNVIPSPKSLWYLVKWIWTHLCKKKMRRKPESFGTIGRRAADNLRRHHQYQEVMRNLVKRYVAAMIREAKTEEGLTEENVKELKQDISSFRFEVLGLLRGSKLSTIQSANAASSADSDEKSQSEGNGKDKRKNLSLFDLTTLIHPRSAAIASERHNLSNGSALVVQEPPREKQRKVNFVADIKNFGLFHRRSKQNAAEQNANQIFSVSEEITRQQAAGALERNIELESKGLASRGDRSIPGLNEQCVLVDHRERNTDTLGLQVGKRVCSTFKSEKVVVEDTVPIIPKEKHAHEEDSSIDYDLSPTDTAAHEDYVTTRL

[4] = target: T2, Short transient receptor potential channel 4; test: SAR Analysis for the identification of selective inhibits of the transient receptor potential cation channel C4 (TRPC4): Automated Electrophysiology. [Related pubchem assays (depositor defined):AID2256]; type: functional
[5] = tested on: Jurkat; test: SAR Analysis of small molecule inhibitors of […] specific antigen receptor-induced NF-kB activation in a Jurkat cell line using a luminescence assay - Set 3. [Related pubchem assays (depositor defined):AID435022, AID435025, AID465]; type: functional, cell-based; details: Homo sapiens
[6] = tested on: HEK293; test: SAR Analysis of small molecule inhibitors of B-cell specific antigen receptor-induced NF-kB activation in a HEK-293T cell line using a luminescence assay - Set 2. [Related pubchem assays (depositor defined):AID435022, AID435025, AID489021]; type: functional, cell-based; details: Homo sapiens
[7] = tested on: HEK293; test: cytotoxicity in HEK293T NF-kB-Luc cells, SAR follow-up, cytotoxicity control for NF-kB activator project, cell-based, resazurin fluorescence (AID 493251); type: functional; details: Homo sapiens
[8] = target: T3, Cytochrome P450 2D6 (Homo sapiens, UniProt P10635); test: qHTS Assay for Inhibitors and Substrates of Cytochrome P450 2D6. [Related pubchem assays: 410 ]; type: ADME; details: read-out: Potency
[9] = target: T1, Cytochrome P450 1A2; remark: listed apart in the source
[10] = target: T4, Cytochrome P450 3A4 (Homo sapiens, UniProt P08684);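 also: CYP3A4 tested as one member of a cytochrome P450 panel screen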
[11] = target: T3, Cytochrome P450 2D6
[12] = target: T4, Cytochrome P450 3A4; remark: listed apart in the source
[13] = target: Cytochrome P450 2C9 (Homo sapiens, UniProt P11712)
Cytochrome P450 2C9, sequence (P11712 whole entry): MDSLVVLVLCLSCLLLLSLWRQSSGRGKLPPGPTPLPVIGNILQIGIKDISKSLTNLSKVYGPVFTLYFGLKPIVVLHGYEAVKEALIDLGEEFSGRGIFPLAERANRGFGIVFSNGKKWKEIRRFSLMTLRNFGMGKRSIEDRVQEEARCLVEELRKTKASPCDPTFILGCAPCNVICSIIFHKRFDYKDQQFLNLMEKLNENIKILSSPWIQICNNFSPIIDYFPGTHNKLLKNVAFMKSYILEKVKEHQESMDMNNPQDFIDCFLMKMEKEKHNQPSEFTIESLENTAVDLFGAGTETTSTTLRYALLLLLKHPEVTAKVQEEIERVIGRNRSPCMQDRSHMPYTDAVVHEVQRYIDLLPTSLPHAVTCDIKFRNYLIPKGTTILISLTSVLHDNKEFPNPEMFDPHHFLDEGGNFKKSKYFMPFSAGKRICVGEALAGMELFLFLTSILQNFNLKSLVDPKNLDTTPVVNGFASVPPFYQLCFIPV

T3 sequence (P10635 whole entry): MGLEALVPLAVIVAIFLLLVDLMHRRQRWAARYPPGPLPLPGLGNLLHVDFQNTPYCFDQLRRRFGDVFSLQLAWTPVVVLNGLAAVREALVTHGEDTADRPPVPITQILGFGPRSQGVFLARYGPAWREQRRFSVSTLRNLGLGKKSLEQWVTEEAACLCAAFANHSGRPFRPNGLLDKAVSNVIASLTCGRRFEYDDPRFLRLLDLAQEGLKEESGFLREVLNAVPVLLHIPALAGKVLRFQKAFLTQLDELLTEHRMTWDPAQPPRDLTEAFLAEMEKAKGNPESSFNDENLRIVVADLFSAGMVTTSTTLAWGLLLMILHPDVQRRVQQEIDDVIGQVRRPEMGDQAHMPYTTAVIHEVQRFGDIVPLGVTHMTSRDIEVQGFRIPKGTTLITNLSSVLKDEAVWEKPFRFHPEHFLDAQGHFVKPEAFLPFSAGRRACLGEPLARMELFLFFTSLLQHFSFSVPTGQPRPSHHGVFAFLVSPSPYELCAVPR
T4 sequence (P08684 whole entry): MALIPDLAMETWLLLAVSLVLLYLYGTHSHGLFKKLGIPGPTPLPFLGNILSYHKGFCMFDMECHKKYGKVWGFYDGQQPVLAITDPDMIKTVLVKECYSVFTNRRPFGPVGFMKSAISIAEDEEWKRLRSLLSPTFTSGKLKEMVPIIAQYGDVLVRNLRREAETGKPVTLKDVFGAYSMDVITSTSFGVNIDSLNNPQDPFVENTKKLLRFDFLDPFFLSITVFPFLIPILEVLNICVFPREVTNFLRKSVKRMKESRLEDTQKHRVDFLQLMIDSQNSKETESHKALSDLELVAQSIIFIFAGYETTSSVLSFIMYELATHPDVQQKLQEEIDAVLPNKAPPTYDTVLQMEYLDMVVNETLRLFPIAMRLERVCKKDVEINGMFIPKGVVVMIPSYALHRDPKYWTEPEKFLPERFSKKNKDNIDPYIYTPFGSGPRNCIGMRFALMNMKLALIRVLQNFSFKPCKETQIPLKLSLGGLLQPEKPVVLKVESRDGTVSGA
Cytochrome P450 2C19, sequence (P33261 whole entry): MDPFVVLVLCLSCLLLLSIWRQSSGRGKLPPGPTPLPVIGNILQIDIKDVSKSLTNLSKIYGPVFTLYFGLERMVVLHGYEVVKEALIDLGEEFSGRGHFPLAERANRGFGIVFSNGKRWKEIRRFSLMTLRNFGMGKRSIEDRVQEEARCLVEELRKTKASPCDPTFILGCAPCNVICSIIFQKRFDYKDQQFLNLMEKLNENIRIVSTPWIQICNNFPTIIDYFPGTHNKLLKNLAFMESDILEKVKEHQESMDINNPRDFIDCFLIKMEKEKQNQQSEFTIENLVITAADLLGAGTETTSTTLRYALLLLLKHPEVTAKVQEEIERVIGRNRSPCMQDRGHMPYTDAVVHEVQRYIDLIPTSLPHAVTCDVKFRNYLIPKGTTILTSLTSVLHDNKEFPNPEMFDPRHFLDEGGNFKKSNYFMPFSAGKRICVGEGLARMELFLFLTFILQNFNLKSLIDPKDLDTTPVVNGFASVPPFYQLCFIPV

- AC50 ([1]; read-out: AC50): 501 nM (inconclusive)
- AC50 [2]: inactive
SMILES: COc1cc2nc(N3CCN(C(=O)[C@@H]4COc5ccccc5O4)CC3)nc(N)c2cc1OC.CS(=O)(=O)O

- EC50 [3]: 1.88 µM (active)
- IC50 [4]: 38.7 µM (active)
SMILES: O=C(Cc1ccccc1)Nc1ccccc1Sc1ccccc1

SMILES: CCCNC(=O)CSCc1nc(-c2ccc(OCC)cc2)oc1C
- IC50 [5]: > 80 µM (inactive)
- IC50 [6]: 74.7 µM (inactive)
- IC50 [7]: > 80 µM (inactive)

- AC50 [8]: 10 µM (not active)
- AC50 [1]: inactive
- AC50 [9]: 31.6 µM (inconclusive)
- AC50 [10]: 25.1 µM (inconclusive)
- AC50 [11]: inactive; also recorded: inconclusive
- AC50 [2]: inactive
- AC50 [12]: inactive
- AC50 [13]: inactive
SMILES: N[C@H](CCC(=O)O)C(=O)O [D-GLUTAMATE]
